According to the supplement of paper PMC11208160:

Assay: recombinant barcode read abundance after kanamycin selection (control-corrected) (log10(CPM+1)); higher = more efficient recombination; sequences stand for … in AGTGCAGAGAAAATCGGCCAGTTTTCTCTGCCTGCAGTCCGCATGCCGT…AGATTTATGCAGCGGACTGCCTTTCTCCCAAAGTGATAAACCGGACAGTATCATGGACCGGTTTTCCCGGTAATCCGTATTTGCAAGGTTGGTTTCACT; site = the 11-nt target
In short: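 IS621 bridge RNA target-binding loops were paired with targets in a pooled library tested in E. coli. After co-electroporation with a donor plasmid, cells were plated in two replicates on chloramphenicol/ampicillin LB agar (control) and on chloramphenicol/ampicillin/kanamycin carrying 0.1 mM IPTG. Barcodes at recombinant junctions were counted as counts per million, averaged and control-corrected to give recombination efficiency. Values are log10(CPM+1).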
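Further: IS621 recombinase and bridge RNA in Escherichia coli cells.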

Sequence: TAGAACACTTGGGTTCTAACCTGTTGCCT (site GAGAACACTAG)
- recombinant barcode read abundance (log10): 0.108

Sequence: TAGAACACTTGGGTTCTAACCTGTTGCCT (site TAGAACACTAG)
- recombinant barcode read abundance (log10): 0.992

Sequence: TAGAACACTTGGGTTCTAACCTGTTGCTA (site TAGAACACTAA)
- recombinant barcode read abundance (log10): 0.237

Sequence: TAGAACACTTGGGTTCTAACCTGTTGCTA (site TAGAACACTCA)
- recombinant barcode read abundance (log10): 0.109

Sequence: TAGAACACTTGGGTTCTAACCTGTTGCTA (site TAGAACACTGA)
- recombinant barcode read abundance (log10): 0.71

Sequence: TAGAACACTTGGGTTCTAACCTGTTGCTA (site TAGAACACTTA)
- recombinant barcode read abundance (log10): 0.807

Sequence: TAGAACACTTGGGTTCTAACCTGTTGCTG (site TAGAACACTAA)
- recombinant barcode read abundance (log10): 0.106

Sequence: TAGAACACTTGGGTTCTAACCTGTTGCTG (site TAGAACACTCA)
- recombinant barcode read abundance (log10): 1

Sequence: TAGAACACTTGGGTTCTAACCTGTTGCTG (site TAGAACACTGA)
- recombinant barcode read abundance (log10): 0.132

Sequence: TAGAACACTTGGGTTCTAACCTGTTGCTG (site TAGAACACTTA)
- recombinant barcode read abundance (log10): 0.0894

Sequence: TAGAACTCTTGGGTTCTAACCTGTTGCCG (site TAGAACTCTAG)
- recombinant barcode read abundance (log10): 0.242

Sequence: TAGAACTCTTGGGTTCTAACCTGTTGCCG (site TAGAACTCTCG)
- recombinant barcode read abundance (log10): 0.591

Sequence: TAGAACTCTTGGGTTCTAACCTGTTGCCG (site TAGAACTCTGG)
- recombinant barcode read abundance (log10): 0.0844

Sequence: TAGAACTCTTGGGTTCTAACCTGTTGCCG (site TAGAACTCTTG)
- recombinant barcode read abundance (log10): 0.127

Sequence: TAGAAGACTTGGGTTCTAACCTGTTGCTT (site TAGAAGACTAA)
- recombinant barcode read abundance (log10): 0.37

Sequence: TAGAAGACTTGGGTTCTAACCTGTTGCTT (site TAGAAGACTCA)
- recombinant barcode read abundance (log10): 0.282

Sequence: TAGAAGACTTGGGTTCTAACCTGTTGCTT (site TAGAAGACTGA)
- recombinant barcode read abundance (log10): 0.0968

Sequence: TAGAAGACTTGGGTTCTAACCTGTTGCTT (site TAGAAGACTTA)
- recombinant barcode read abundance (log10): 0.399

Sequence: TAGAAGGCTTGGGTTCTAACCTGTTGCTA (site TAGAAGCCTTA)
- recombinant barcode read abundance (log10): 0.0194

Sequence: TAGAAGGCTTGGGTTCTAACCTGTTGCTA (site TAGAAGGCTTA)
- recombinant barcode read abundance (log10): 1.15

Sequence: TAGAAGTCTTGGGTTCTAACCTGTTGCTG (site AAGATGTCTCA)
- recombinant barcode read abundance (log10): 0.122

Sequence: TAGAAGTCTTGGGTTCTAACCTGTTGCTG (site TAGAAGTCTCA)
- recombinant barcode read abundance (log10): 1.46

Sequence: TAGAATACTTGGGTTCTAACCTGTTGCGG (site TAGAATACTCC)
- recombinant barcode read abundance (log10): 1.06

Sequence: TAGAATACTTGGGTTCTAACCTGTTGCGG (site TATAATACTCC)
- recombinant barcode read abundance (log10): 0.0627

Sequence: TAGAATCCTTGGGTTCTAACCTGTTGCAC (site TAGAATCCTAT)
- recombinant barcode read abundance (log10): 0.117

Sequence: TAGAATCCTTGGGTTCTAACCTGTTGCAC (site TAGAATCCTCT)
- recombinant barcode read abundance (log10): 0.152

Sequence: TAGAATCCTTGGGTTCTAACCTGTTGCAC (site TAGAATCCTGT)
- recombinant barcode read abundance (log10): 0.152

Sequence: TAGAATCCTTGGGTTCTAACCTGTTGCAC (site TAGAATCCTTT)
- recombinant barcode read abundance (log10): 0.103

Sequence: TAGACAGCTTGGGTTCTAACCTGTTGCCT (site TAAACAGCTAG)
- recombinant barcode read abundance (log10): 0.143

Sequence: TAGACAGCTTGGGTTCTAACCTGTTGCCT (site TACACAGCTAG)
- recombinant barcode read abundance (log10): 0.122

Sequence: TAGACAGCTTGGGTTCTAACCTGTTGCCT (site TAGACAGCTAG)
- recombinant barcode read abundance (log10): 0.416

Sequence: TAGACAGCTTGGGTTCTAACCTGTTGCCT (site TATACAGCTAG)
- recombinant barcode read abundance (log10): 0.0229

Sequence: TAGACGACTTGGGTTCTAACCTGTTGCAC (site TAGACGACTGT)
- recombinant barcode read abundance (log10): 1.57

Sequence: TAGACGACTTGGGTTCTAACCTGTTGCAC (site TAGCCGTCTGT)
- recombinant barcode read abundance (log10): 0.173

Sequence: TAGACGACTTGGGTTCTAACCTGTTGCTT (site TAGACGACTAA)
- recombinant barcode read abundance (log10): 0.829

Sequence: TAGACGACTTGGGTTCTAACCTGTTGCTT (site TAGCCGACTAA)
- recombinant barcode read abundance (log10): 0.0758

Sequence: TAGACGACTTGGGTTCTAACCTGTTGCTT (site TAGGCGACTAA)
- recombinant barcode read abundance (log10): 0.0736

Sequence: TAGACGACTTGGGTTCTAACCTGTTGCTT (site TAGTCGACTAA)
- recombinant barcode read abundance (log10): 0.086

Sequence: TAGACTACTTGGGTTCTAACCTGTTGCCT (site CAGACTCCTAG)
- recombinant barcode read abundance (log10): 0.055

Sequence: TAGACTACTTGGGTTCTAACCTGTTGCCT (site TAGACTACTAG)
- recombinant barcode read abundance (log10): 0.521

Sequence: TAGACTACTTGGGTTCTAACCTGTTGCTC (site TAGACTACTAA)
- recombinant barcode read abundance (log10): 0

Sequence: TAGACTACTTGGGTTCTAACCTGTTGCTC (site TAGACTACTCA)
- recombinant barcode read abundance (log10): 0.082

Sequence: TAGACTACTTGGGTTCTAACCTGTTGCTC (site TAGACTACTGA)
- recombinant barcode read abundance (log10): 0.123

Sequence: TAGACTACTTGGGTTCTAACCTGTTGCTC (site TAGACTACTTA)
- recombinant barcode read abundance (log10): 0.0392

Sequence: TAGACTACTTGGGTTCTAACCTGTTGCTG (site TAGACTACTAA)
- recombinant barcode read abundance (log10): 0.0928

Sequence: TAGACTACTTGGGTTCTAACCTGTTGCTG (site TAGACTACTCA)
- recombinant barcode read abundance (log10): 0.609

Sequence: TAGACTACTTGGGTTCTAACCTGTTGCTG (site TAGACTACTGA)
- recombinant barcode read abundance (log10): 0.215

Sequence: TAGACTACTTGGGTTCTAACCTGTTGCTG (site TAGACTACTTA)
- recombinant barcode read abundance (log10): 0.0595

Sequence: TAGAGCACTTGGGTTCTAACCTGTTGCCT (site AAGAGCACTAG)
- recombinant barcode read abundance (log10): 0.057

Sequence: TAGAGCACTTGGGTTCTAACCTGTTGCCT (site CAGAGCACTAG)
- recombinant barcode read abundance (log10): 0.114

Sequence: TAGAGCACTTGGGTTCTAACCTGTTGCCT (site GAGAGCACTAG)
- recombinant barcode read abundance (log10): 0.0873

Sequence: TAGAGCACTTGGGTTCTAACCTGTTGCCT (site TAGAGCACTAG)
- recombinant barcode read abundance (log10): 0.644

Sequence: TAGATCACTTGGGTTCTAACCTGTTGCAT (site TAGATCACTAT)
- recombinant barcode read abundance (log10): 0.629

Sequence: TAGATCACTTGGGTTCTAACCTGTTGCAT (site TAGCTCACTAT)
- recombinant barcode read abundance (log10): 0.408

Sequence: TAGATCACTTGGGTTCTAACCTGTTGCAT (site TAGGTCACTAT)
- recombinant barcode read abundance (log10): 0.0386

Sequence: TAGATCACTTGGGTTCTAACCTGTTGCAT (site TAGTTCACTAT)
- recombinant barcode read abundance (log10): 0.0464

Sequence: TAGATTACTTGGGTTCTAACCTGTTGCCT (site TAAAATACTAG)
- recombinant barcode read abundance (log10): 0.12

Sequence: TAGATTACTTGGGTTCTAACCTGTTGCCT (site TAGATTACTAG)
- recombinant barcode read abundance (log10): 0.178

Sequence: TAGATTCCTTGGGTTCTAACCTGTTGCAA (site CGACAGTCTAG)
- recombinant barcode read abundance (log10): 0.102

Sequence: TAGATTCCTTGGGTTCTAACCTGTTGCAA (site TAGATTCCTTT)
- recombinant barcode read abundance (log10): 0.0712

Sequence: TAGCACCCTTGGGTTCTAACCTGTTGCCA (site TAGCACCCTAG)
- recombinant barcode read abundance (log10): 0.394

Sequence: TAGCACCCTTGGGTTCTAACCTGTTGCCA (site TAGCACCCTCG)
- recombinant barcode read abundance (log10): 0.218

Sequence: TAGCACCCTTGGGTTCTAACCTGTTGCCA (site TAGCACCCTGG)
- recombinant barcode read abundance (log10): 0.156

Sequence: TAGCACCCTTGGGTTCTAACCTGTTGCCA (site TAGCACCCTTG)
- recombinant barcode read abundance (log10): 0.965

Sequence: TAGCACCCTTGGGTTCTAACCTGTTGCCT (site TAGCACCCTAG)
- recombinant barcode read abundance (log10): 1.79

Sequence: TAGCACCCTTGGGTTCTAACCTGTTGCCT (site TAGCACCCTCG)
- recombinant barcode read abundance (log10): 0.0128
